Assay results published in US10533002B2, “Thiophene- or furan-substituted isothiazoline compounds as pesticides” (BOEHRINGER INGELHEIM ANIMAL HEATLH USA INC., priority 2013, dated 2020).

Tests used:
[1] = test system: Southern Armyworm (Spodoptera eridania); experiment: Southern armyworm lima bean foliar spray test (B.5); type: in vivo; settings: 96 h, larvae on sprayed lima bean plants, 4 days after treatment, read-out: mortality in comparison with untreated controls
Protocol: B.5 Southern Armyworm (Spodoptera eridania)
The active compounds were formulated by a Tecan liquid handler in 100% cyclohexanone as a 10,000 ppm solution supplied in tubes. The 10,000 ppm solution was serially diluted in 100% cyclohexanone to make interim solutions. These served as stock solutions for which final dilutions were made by the Tecan in 50% acetone:50% water (v/v) into 5 or 10 ml glass vials. A nonionic surfactant (Kinetic®) was included in the solution at a volume of 0.01% (v/v). The vials were then inserted into an automated electrostatic sprayer equipped with an atomizing nozzle for application to plants/insects.
Lima bean plants (variety Sieva) were grown 2 plants to a pot and selected for treatment at the 1st true leaf stage. Test solutions were sprayed onto the foliage by an automated electrostatic plant sprayer equipped with an atomizing spray nozzle. The plants were dried in the sprayer fume hood and then removed from the sprayer. Each pot was placed into perforated plastic bags with a zip closure. About 10 to 11 armyworm larvae were placed into the bag and the bags zipped closed. […] Mortality and reduced feeding were assessed 4 days after treatment, compared to untreated control plants.

[2] = test system: Tobacco Budworm (Heliothis virescens); experiment: Tobacco budworm microtiter diet test (B.7); type: in vivo; settings: 120 h, egg and larval mortality, sprayed insect diet, 5 days, read-out: mortality in comparison with untreated controls
Protocol: B.7 Tobacco Budworm (Heliothis virescens)
For evaluating control of tobacco budworm (Heliothis virescens) the test unit consisted of 96-well-microtiter plates containing an insect diet and 15-25 H. virescens eggs. The compounds were formulated using a solution containing 75% v/v water and 25% v/v DMSO. Different concentrations of formulated compounds were sprayed onto the insect diet at 10 μl, using a custom built micro atomizer, at two replications.
After application, microtiter plates were incubated at about 28±1° C. and about 80±5% relative humidity for 5 days. Egg and larval mortality was then visually assessed.

[3] = test system: Mediterranean Fruitfly (Ceratitis capitata); experiment: Mediterranean fruitfly microtiter diet test (B.3); settings: 120 h, read-out: mortality in comparison with untreated controls
[4] = test system: Vetch Aphid (Megoura viciae); experiment: Vetch aphid broad bean leaf disk test (B.6); type: in vivo; settings: foliar, 120 h, adult aphids on sprayed broad bean leaf disks, 5 days, read-out: mortality in comparison with untreated controls
Protocol: B.6 Vetch Aphid (Megoura viciae)
For evaluating control of vetch aphid (Megoura viciae) through contact or systemic means the test unit consisted of 24-well-microtiter plates containing broad bean leaf disks.
The compounds were formulated using a solution containing 75% v/v water and 25% v/v DMSO. Different concentrations of formulated compounds were sprayed onto the leaf disks at 2.5 μl, using a custom built micro atomizer, at two replications. After application, the leaf disks were air-dried and 5-8 adult aphids placed on the leaf disks inside the microtiter plate wells. The aphids were then allowed to suck on the treated leaf disks and incubated at about 23±1° C. and about 50±5% relative humidity for 5 days. Aphid mortality and fecundity was then visually assessed.

[5] = test system: Diamond Back Moth (Plutella xylostella); experiment: Diamond back moth leaf-dip test (B.1); type: in vivo; settings: cabbage leaves dipped, 3rd instar larvae, 72 hours after treatment, read-out: mortality in comparison with untreated controls
Protocol: B.1 Diamond Back Moth (Plutella xylostella)
The active compound was dissolved at the desired concentration in a mixture of 1:1 (vol:vol) distilled water:aceteone. Surfactant (Kinetic HV) was added at a rate of 0.01% (vol/vol). The test solution was prepared at the day of use.
Leaves of cabbage were dipped in test solution and air-dried. Treated leaves were placed in petri dishes lined with moist filter paper and inoculated with ten 3rd instar larvae. Mortality was recorded 72 hours after treatment. Feeding damages were also recorded using a scale of 0-100%.

[6] = test system: Boll Weevil (Anthonomus grandis); experiment: Boll weevil microtiter diet test (B.8); type: in vivo; settings: 120 h, egg and larval mortality, sprayed insect diet, 5 days, read-out: mortality in comparison with untreated controls
Protocol: B.8 Boll Weevil (Anthonomus grandis)
For evaluating control of boll weevil (Anthonomus grandis) the test unit consisted of 96-well-microtiter plates containing an insect diet and 5-10 A. grandis eggs.
The compounds were formulated using a solution containing 75% v/v water and 25% v/v DMSO. Different concentrations of formulated compounds were sprayed onto the insect diet at 5 μl, using a custom built micro atomizer, at two replications.
After application, microtiter plates were incubated at about 25±1° C. and about 75±5% relative humidity for 5 days. Egg and larval mortality was then visually assessed.

[7] = test system: Green Peach Aphid (Myzus persicae); experiment: Green peach aphid artificial diet systemic test (B.2); type: in vivo; settings: 72 h, adult aphids on treated artificial diet, 3 days, read-out: mortality in comparison with untreated controls
Text: B.2 Green Peach Aphid (Myzus persicae)
For evaluating control of green peach aphid (Myzus persicae) through systemic means the test unit consisted of 96-well-microtiter plates containing liquid artificial diet under an artificial membrane.
The compounds were formulated using a solution containing 75% v/v water and 25% v/v DMSO. Different concentrations of formulated compounds were pipetted into the aphid diet, using a custom built pipetter, at two replications.
After application, 5-8 adult aphids were placed on the artificial membrane inside the microtiter plate wells. The aphids were then allowed to suck on the treated aphid diet and incubated at about 23±1° C. and about 50±5% relative humidity for 3 days. Aphid mortality and fecundity was then visually assessed.

Cc1cc(C2=NSC(c3cc(Cl)c(Cl)c(Cl)c3)(C(F)(F)F)C2)sc1C(=O)OC(C)(C)C (stereo not shown) [Compound 1-1, tert-Butyl 3-methyl-5-[5-(3,4,5-trichlorophenyl)-5-(trifluoromethyl)-4H-isothiazol-3-yl]thiophene-2-carboxylate]
≥ 75%: mortality at 300 ppm [1]

Cc1cc(C2=NSC(c3cc(Cl)c(Cl)c(Cl)c3)(C(F)(F)F)C2)sc1C(=O)NCC(F)(F)F (stereo not shown) [Compound 1-7, 3-Methyl-5-[5-(3,4,5-trichlorophenyl)-5-(trifluoromethyl)-4H-isothiazol-3-yl]-N-(2,2,2-trifluoroethyl)thiophene-2-carboxamide]
≥ 75%: mortality at 2500 ppm [2] | mortality at 2500 ppm [3] | mortality at 2500 ppm [4] | mortality at 500 ppm [5] | mortality at 2500 ppm [6]

O=C(O)c1sc(C2=NSC(c3cc(Cl)c(F)c(Cl)c3)(C(F)(F)F)C2)cc1C(F)(F)F (stereo not shown) [Compound 1-9, 5-[5-(3,5-Dichloro-4-fluoro-phenyl)-5-(trifluoromethyl)-4H-isothiazol-3-yl]-3-(trifluoromethyl)-thiophene-2-carboxylic acid]
≥ 75%: mortality at 2500 ppm [2] | mortality at 2500 ppm [6]

O=C(NCc1ncccn1)c1sc(C2=NSC(c3cc(Cl)c(F)c(Cl)c3)(C(F)(F)F)C2)cc1C(F)(F)F (stereo not shown) [Compound 1-12, 5-[5-(3,5-Dichloro-4-fluoro-phenyl)-5-(trifluoromethyl)-4H-isothiazol-3-yl]-N-(pyrimidin-2-ylmethyl)-3-(trifluoromethyl)thiophene-2-carboxamide]
≥ 75%: mortality at 2500 ppm [2] | mortality at 2500 ppm [3] | mortality at 2500 ppm [4] | mortality at 2500 ppm [7] | mortality at 2500 ppm [6]
